# Test results from PMC3462190, “A Peptidic Unconjugated GRP78/BiP Ligand Modulates the Unfolded Protein Response and Induces Prostate Cancer Cell Death” (PLoS ONE, 2012).
# Where no end group is shown, it is not given here.
# B1: Bag-1: cochaperone Bag-1, HA-tagged (pcDNA3.1-HA-Bag-1), or endogenous (protein)
# chain: TPLSALGIQDGCRVMLIGKKNSPQEEVELKKLKHLEKSVEKIADQLEELNKELTGIQQGFLPKDLQAE
# modifications: left off: HA, end not stated, kept
# notes: cochaperone Bag-1, HA-tagged (pcDNA3.1-HA-Bag-1), or endogenous
# B2: Bag-1 peptide: internal sequence of 68 amino acids of Bag-1 (Bag1-L 202–269), HA-tagged, expressed from pcDNA3 (peptide)
# chain: B1 chain
# modifications: also: HA tag, end not given here
# Experiments:
# GRP78/BiP [1] = experiment: GST pull-down with GRP78/BiP; assay type: binding; details: for interaction with GRP78/BiP: GST-fused protein/peptide, 22Rv.1 cell lysate, Western blot
# Protocol: Expression of GST fusion proteins for GST-pull-down experiments were performed essentially as described previously.
# Figure 1 Bag-1 proteins interact with the molecular chaperone GRP78/BiP. A. The Bag-1 family of proteins binds GRP78/BiP. GST pull-down assay was performed incubating 5 µg each of GST-fused Bag-1 proteins with 400 µg of 22Rv.1 cell lysate. Western blotting with a specific antibodiy against GRP78/BiP was used to detect the binding and an anti-GST antibody was used to determine the amount of bacterially purified protein employed in the assay. B. Bag-1 and GRP78 interact in vivo. GRP78 was immunoprecipitated with an anti-GRP78/BiP antibody or IgG as control in 22Rv.1 cells. Western blotting with an anti-Bag-1 and anti-GRP78 antibody was performed to determine GRP78-Bag-1 interaction. C. Bag-1 and GRP78/BiP show a perinuclear colocalization. Confocal microscopic analyses were carried out in 22Rv.1 cells that have been paraformaldehyde-fixed and stained with a Bag-1 antibody to detect Bag-1 (green channel) and a GRP78/BiP specific antibody to detect GRP78/BiP (red channel). The orange staining in the merge of the two channels indicates the degree of co-localization of the two proteins. All images (40X) were acquired with a Leica TCS SPE confocal microscope (Leica Microsystems; Scale bars indicate 25 µm). D. Diagrammatic representation of the domains of GRP78. E. Bag-1 binds to multiple sites on GRP78. GST-pull down assay performed incubating 500 µg lysate of HEK-293 cells transfected with an HA-tagged Bag-1 and 10 µg GST-fused GRP78 full length and its ATPase and substrate binding domain (SBD). Western blot analysis was carried out using an HA antibody to detect the Bag-1-tagged protein.
# Figure 5 An N-terminal unfolded fragment of the Bag-1 peptide is sufficient to reduce tumor cell growth. A. Schematic diagram of the Bag-1 peptide and its deletion mutants. The ubiquitin-like domain is represented in blue and the BAG domain in red. The numbers refer to the amino acid positions of the different domains. The amino acid residues are numbered following the numbering for Bag-1L. B. Prediction of the secondary structure of the Bag-1 peptide, showing an N-terminal β-hairpin from the ubiquitin-like domain (blue) and a C-terminal α-helix from the BAG domain (red). C. Normalized circular dichroism spectra of the Bag-1 peptides. 30 µM of the Bag-1 peptide were measured in 20 mM KHPO4 buffer, pH 6.8 (black line). […] 12 µM of the N-term peptide (green line) and 11 µM of C-term (blue line) were measured under the same conditions. […] Cells transfected with the indicated constructs were selected in medium containing neomycin and the colonies formed were quantified. […] Tumor size was measured once per week using a caliper and expressed as tumor volume in mm^3. […]
# GRP78/BiP [2] = experiment: In vitro ATPase activity assay of GRP78; assay type: biochemical; details: GRP78 0.5 µg, GST purified Bag-1 or Bag-1 peptide up to 1.5 µg, 1 h, 37°C
# Protocol: In vitro ATPase activity assay of GRP78. A. ATPase activity was measured with the ATPase assay kit from Innova Bioscience (Cambridge, UK). The reaction mixture contained GRP78 (0.5 µg) increasing amounts of GST purified Bag-1 (continuous line) or Bag-1 peptide (dashed line) up to 1.5 µg. The reaction was carried out for 1 h at 37°C with purified ATP according to the manufacturer’s instructions. Each point represents the mean value of three independent experiments ± SEM. B. The purity of protein preparation used for the assay. Shown are 5 µg of purified GRP78 (StressMarq Biosciences, Victoria, Canada), GST Bag-1 peptide, and GST-Bag-1 used in the assay following SDS PAGE and Coomassie blue staining. (TIF) Click here for additional data file.
molecule,measurement,setting,value
C-terminal peptide: 28 C-terminal fragment of the Bag-1 peptide (Bag-1L 241–269) (EKIADQLEELNKELTGIQQGFLPKDLQAE; not fully specified),interaction with GRP78/BiP,GRP78/BiP [1],not the C-terminal peptide bound to GRP78/BiP
N-terminal peptide: N-terminal 40 residues of the Bag-1 peptide (Bag-1L 202–241) (TPLSALGIQDGCRVMLIGKKNSPQEEVELKKLKHLEKSVE; not fully specified),interaction with GRP78/BiP,GRP78/BiP [1],bound to GRP78/BiP
ΔUbi peptide: Bag-1 peptide lacking the ubiquitin-like domain portion (Bag-1L 220–269) (KKNSPQEEVELKKLKHLEKSVEKIADQLEELNKELTGIQQGFLPKDLQAE; not fully specified),interaction with GRP78/BiP,GRP78/BiP [1],abrogated the binding to GRP78
B1,ATPase activity of GRP78/BiP,GRP78/BiP [2],increased this enzymatic activity
same,interaction with full length GRP78/BiP,"GRP78/BiP [1]; 10 µg GST-fused GRP78 full length, lysate of HEK-293 cells expressing HA-tagged Bag-1",interacted not only with the full length GRP78/BiP
B2,ATPase activity of GRP78/BiP,GRP78/BiP [2],did not have any effect on the ATPase activity of GRP78/BiP
